{"source": "patent US4950651A", "about": "“Nitroso-N-(β-chloro ethyl)-carbamoyl peptides” (priority 1981, dated 1990)", "key": {"[1]": {"test_system": "L1210 leukemia", "assay": "Relation between effect and chemical structure in mice suffering from L1210 leukemia (Table III)", "format": "in vivo", "text": "Examination of the relation between the\neffect and the chemical structure with compounds\nsimilar to compound of formula X in mice suffering"}, "[2]": {"test_system": "L-1210 leukemia", "assay": "Effect on intraperitoneally implanted L-1210 leukemia in mice (Table I)", "format": "in vivo", "conditions": "treatment 3 days", "text": "In table I the effect of Compound X [drawing 8] and VII on intraperitoneally implanted L-1210 leukemia is shown on mice.\nTumor inoculum = 10^6, ascites cells, i.p.\nHost animal = CDF, female mice\nToxicity = on the 5th day < 4/6 mice are alive.\nEvaluation = MST = average survival period\nCritical limit = T/C ≥ 125, significant antitumor activity."}, "[3]": {"test_system": "L1210 leukemia", "format": "in vivo, mice", "text": "Effect of compound of formula X in combination\nwith pharmaceuticals in mice suffering from L1210"}, "[4]": {"test_system": "Lewis lung tumor", "assay": "Effect on solid tumors: Lewis lung metastatizing mice tumor (i.m.)", "format": "in vivo", "text": "(§1) (B) Lewis lung and B16 melanoma - meta-\n(§2) statizing mice tumor (i.m.)\n(§3) i.p. administration from the 1st day after […]"}, "[5]": {"test_system": "B16 melanoma", "assay": "Effect on solid tumors: B16 melanoma metastatizing mice tumor (i.m.)", "format": "in vivo", "text": "as §1, §2, §3"}}, "note": "Structures can show the parent of a compound that is named as a salt. Where two headings read alike, the source gives them in different places. Where a SMILES comes first, the peptide text is derived from it. The star is where a group is joined. Carbamoyl(2-ClEt,NO) = O=NN(CCCl)C(=O)*", "data": [{"smiles": "CC(C)[C@H](NC(=O)[C@@H]1CCCN1C(=O)[C@H](CCCCN)NC(=O)CNC(=O)N(CCCl)N=O)C(N)=O", "note": "[XII, α-N-nitroso-N-(β-chloro-ethyl)-carbamoyl-glycyl-lysyl-prolyl-valine-amide-hydrochloride] ({Carbamoyl(2-ClEt,NO)}-GKPV-NH2)", "values": [{"measurement": "ILS %", "setting": "[1]; 15 mg/kg", "result": 20, "unit": "%"}, {"measurement": "ILS %", "setting": "[1]; 45 mg/kg", "result": 10, "unit": "%"}, {"measurement": "ILS %", "setting": "[1]; 100 mg/kg", "result": 35, "unit": "%"}, {"measurement": "ILS %", "setting": "[1]; 150 mg/kg", "result": 230, "unit": "%"}]}, {"smiles": "O=NN(CCCl)C(=O)NCCCl", "note": "[BCNU, 1,3-bis-(β-chloro-ethyl)-1-nitroso-urea]", "values": [{"measurement": "Average loss of weight on the 5th day", "setting": "[2]; dose IP 30 mg/kg", "result": -0.8, "unit": "g"}, {"measurement": "MST (average survival period)", "setting": "[2]; dose IP 30 mg/kg", "result": "> 47.0", "unit": "days"}, {"measurement": "MST efficiency %, T/C", "setting": "[2]; dose IP 30 mg/kg", "result": "> 783", "unit": "%"}, {"measurement": "Number of live mice on the 5th day", "setting": "[2]; dose IP 30 mg/kg", "result": "6/6"}, {"measurement": "Number of live mice on the [47th] day", "setting": "[2]; dose IP 30 mg/kg", "result": 5}, {"measurement": "Average loss of weight on the 5th day", "setting": "[2]; dose IP 40 mg/kg", "result": -1.4, "unit": "g"}, {"measurement": "MST (average survival period)", "setting": "[2]; dose IP 40 mg/kg", "result": "> 47.0", "unit": "days"}, {"measurement": "MST efficiency %, T/C", "setting": "[2]; dose IP 40 mg/kg", "result": "> 783", "unit": "%"}, {"measurement": "Number of live mice on the 5th day", "setting": "[2]; dose IP 40 mg/kg", "result": "6/6"}, {"measurement": "Number of live mice on the [47th] day", "setting": "[2]; dose IP 40 mg/kg", "result": 5}, {"measurement": "ILS %", "setting": "[3]; 5 mg/kg, day 1", "result": 25, "unit": "%"}, {"measurement": "ILS %", "setting": "[3]; 20 mg/kg, day 1", "result": 110, "unit": "%"}, {"measurement": "ILS %", "setting": "[3]; 1 × 10 mg/kg, day 2", "result": 77, "unit": "%"}, {"measurement": "ILS %", "setting": "[3]; 1 × 20 mg/kg, day 3", "result": 70, "unit": "%"}, {"measurement": "ILS %", "setting": "[4]; 20 mg/kg i.p.", "result": 36, "unit": "%"}, {"measurement": "Median surviving day", "setting": "[4]; 20 mg/kg i.p.", "result": 28.5, "unit": "days"}, {"measurement": "ILS %", "setting": "[4]; 5 × 4 mg/kg i.p.", "result": 19, "unit": "%"}, {"measurement": "Median surviving day", "setting": "[4]; 5 × 4 mg/kg i.p.", "result": 25.0, "unit": "days"}, {"measurement": "ILS %", "setting": "[5]; 20 mg/kg i.p.", "result": 61, "unit": "%"}, {"measurement": "Median surviving day", "setting": "[5]; 20 mg/kg i.p.", "result": 42.0, "unit": "days"}, {"measurement": "ILS %", "setting": "[5]; 5 × 4 mg/kg i.p.", "result": 31, "unit": "%"}, {"measurement": "Median surviving day", "setting": "[5]; 5 × 4 mg/kg i.p.", "result": 34.0, "unit": "days"}]}, {"smiles": "O=NN(CCCl)C(=O)N[C@H]1C(O)O[C@H](CO)[C@@H](O)[C@@H]1O", "note": "(stereo partly drawn) [Chlorosoticin, 2-[3-(2-chloro-ethyl)-3-nitroso-ureido]-2-deoxy-O-glycopyranose]", "values": [{"measurement": "Average loss of weight on the 5th day", "setting": "[2]; dose IP 8 mg/kg", "result": "+1.2 g"}, {"measurement": "MST (average survival period)", "setting": "[2]; dose IP 8 mg/kg", "result": 9.0, "unit": "days"}, {"measurement": "MST efficiency %, T/C", "setting": "[2]; dose IP 8 mg/kg", "result": 150, "unit": "%"}, {"measurement": "Number of live mice on the 5th day", "setting": "[2]; dose IP 8 mg/kg", "result": "6/6"}, {"measurement": "Average loss of weight on the 5th day", "setting": "[2]; dose IP 16 mg/kg", "result": -0.8, "unit": "g"}, {"measurement": "MST (average survival period)", "setting": "[2]; dose IP 16 mg/kg", "result": 20.5, "unit": "days"}, {"measurement": "MST efficiency %, T/C", "setting": "[2]; dose IP 16 mg/kg", "result": 342, "unit": "%"}, {"measurement": "Number of live mice on the 5th day", "setting": "[2]; dose IP 16 mg/kg", "result": "6/6"}, {"measurement": "Average loss of weight on the 5th day", "setting": "[2]; dose IP 32 mg/kg", "result": -1.2, "unit": "g"}, {"measurement": "MST (average survival period)", "setting": "[2]; dose IP 32 mg/kg", "result": "> 47.0", "unit": "days"}, {"measurement": "MST efficiency %, T/C", "setting": "[2]; dose IP 32 mg/kg", "result": "> 783", "unit": "%"}, {"measurement": "Number of live mice on the 5th day", "setting": "[2]; dose IP 32 mg/kg", "result": "5/6"}, {"measurement": "Number of live mice on the [47th] day", "setting": "[2]; dose IP 32 mg/kg", "result": 3}, {"measurement": "Average loss of weight on the 5th day", "setting": "[2]; dose IP 48 mg/kg", "result": -1.3, "unit": "g"}, {"measurement": "MST (average survival period)", "setting": "[2]; dose IP 48 mg/kg", "result": 8.5, "unit": "days"}, {"measurement": "MST efficiency %, T/C", "setting": "[2]; dose IP 48 mg/kg", "result": 142, "unit": "%"}, {"measurement": "Number of live mice on the 5th day", "setting": "[2]; dose IP 48 mg/kg", "result": "6/6"}]}, {"smiles": "O[C@H]([C@H](O)[C@@H](O)CBr)[C@H](O)CBr", "note": "[dibromodulcitol]", "values": [{"measurement": "ILS %", "setting": "[3]; 1 × 50 mg/kg, day 2", "result": 0, "unit": "%"}]}, {"smiles": "O=P1(N(CCCl)CCCl)NCCCO1", "note": "(stereo not drawn) [cyclophosphamide]", "values": [{"measurement": "ILS %", "setting": "[3]; 1 × 50 mg/kg, day 2", "result": 44, "unit": "%"}]}]}
